“And” between values parts separate entries of the source, which are not always exact repeats. Equal entries are not always repeated.
Columns and labels:
Murine B cells = test: Mouse B cell proliferation following BCR stimulation; assay type: cell-based; conditions: Mouse spleen, stimulus Anti-IgM, mean of at least two experiments
Experimental: Murine B cells were stimulated via BCR by anti-IgM antibody in the presence of titrated amounts of compounds as described in (Julius et al 1984) and proliferation was assessed by incorporation of radioactive ^3H-Thymidine.

[1] = tested on: Human Peripheral Blood Mononuclear Cells (PBMC); test: TLR9 ligand-induced CXCL13 production of human PBMC; assay type: cell-based; conditions: ODN stimulus; for CXCL13 in culture supernatant: individual donors 1-6; for CXCL13 in culture supernatant, mean: mean of 6 donors
Description: For evaluating the effect of compound A on the production of chemokines relevant for the formation of germinal centers, PBMC were isolated from Buffy Coat (collected through Inter-Regionale Blutspende of the Swiss Red Cross) by standard Ficoll gradient centrifugation using Ficoll-Paque plus (GE healthcare #17-1440-03) in Leucosep tubes (Greiner Bio-one #227289). Cells were washed two times with PBS and then resuspended at 2.2×10^6/mL in RPMI 1640 medium supplemented with 10% FBS, Gentamycine (50 ug/ml), Insulin-Transferrin-Selenium and P-Mercaptoethanol (50 uM).
PBMC were dispensed to 48-well plates (Costar #3548) and incubated with pre-diluted compound A resulting in a dilution with a final concentration of 0.3, 1 or 3 uM. Control samples were pretreated with DMSO to obtain a final concentration of 0.03% DMSO. Samples were mixed thoroughly and incubated in a humified incubator at 37° C. for 1 h. Cells were thereafter stimulated by the addition of the TLR9 agonist ODN M362 (Invivogen, #tlrl-m362) at a final concentration of 30 ug/ml or anti-IgM-Dextran (Finabiosolution #0004) at a final concentration of 2 ug/ml. Control samples were left unstimulated. Samples were mixed thoroughly and incubated in a humified incubator at 37° C. for 24 h.
After the stimulation, culture supernatants were harvested and chemokines quantified by Bio-Plex Multiplex immunoassay (CXCL13; Bio Rad #171 BK12MR2) or MSD V-Plex assay (IP-10; Meso Scale Diagnostics) or according to the manufacturer's instructions.

PI3K/Akt pathway = test: pAkt in B cells in stimulated whole blood clinical samples after single oral administration; assay type: in vivo; conditions: healthy human subjects
Experimental: For assessment of the in vivo effects of compound A on human B cell activation measured as Akt phosphorylation vlinical samples were prepared from whole blood using a Na-Heparin monovette system.
Whole blood was then incubated with either anti-IgM/IL-4 (7.5 μg/ml of anti-IgM [Southern Biotech] and 7.5 ng/ml of IL-4 [R&D]) or with PBS (unstimulated sample). Incubation was performed using 95 μl of blood (in duplicates) in plate format within 1 h after blood collection. Cultures were mixed well by gently pipetting up and down and incubated at 37° C. (in incubator, 5% CO2). After 30 min whole blood was lysed and fixed with pre-warmed (37° C.) BD PhosFlow-Lyse/Fix buffer (1600 μl) for 20 minutes at 37° C. (water bath) in the dark. The lysed and fixed blood samples were immediately frozen and stored at −80° C. until further processing.
Clinical samples were processed within one week after blood collection. After thawing was completed (at 37° C. water-bath), samples were centrifuged at 502 g (1580 rpm) for 5 min at room temperature. Then pelleted cells were washed with 500 μL ice cold BD Phosflow Perm II buffer, mixed well and kept on ice for 30-35 minutes. […]
Samples were analyzed on the same day. […] Data was calculated as percent inhibition of pAkt relative to the baseline value.

[2] = tested on: Splenic B cell from Balb/c nu/nu mice; test: LPS-induced antibody production from mouse B cells in vitro; assay type: cell-based; conditions: Mouse spleen, stimulus LPS/IL-4, readout IgM, mean of at least two experiments
Experimental: The LPS-induced B cell functions were investigated according to a protocol adapted from Moon (Moon et al 1989) with minor modifications: Splenic B cell from Balb/c nu/nu mice were cultured with mIL-4, mIL-5 and LPS in the presence of titrated amounts of compound. The final concentrations were 0.5×10^5 splenocytes/well, 500 U/ml mIL-4, 500 U/ml mIL-5, and 50 μg/ml LPS. Supernatants were analyzed for antibody production by ELISA after 6 days of incubation.

IC50 [2]: 234 nM
Structure (SMILES): CCC(=O)N1CC[C@H](Nc2ncnc3c2CN(c2cnc(OC)c(C(F)(F)F)c2)CC3)C1 [Compound A, 1-{(S)-3-[6-(6-Methoxy-5-trifluoromethyl-pyridin-3-yl)-5,6,7,8-tetrahydro-pyrido[4,3-d]pyrimidin-4-ylamino]-pyrrolidin-1-yl}-propan-1-one]
IC50 (Murine B cells): 8 nM
inhibition at 0.3 µM ([1]; Homo sapiens, PBMC, Compound A 300 nM): 40%
inhibition at 1 µM ([1]; Homo sapiens, PBMC, Compound A 1000 nM): 51%
inhibition at 3 µM ([1]; Homo sapiens, PBMC, Compound A 3000 nM): 55%
CXCL13 in culture supernatant ([1]; Compound A 300 nM): 8 pg/ml (2×) and 3 pg/ml and 39 pg/ml and 113 pg/ml and 51 pg/ml
CXCL13 in culture supernatant, mean ([1]; Compound A 300 nM): 37 pg/mL
CXCL13 in culture supernatant ([1]; Compound A 1000 nM): 7 pg/ml and 3 pg/ml and 42 pg/ml (2×) and 84 pg/ml and 6 pg/ml
CXCL13 in culture supernatant, mean ([1]; Compound A 1000 nM): 31 pg/mL
CXCL13 in culture supernatant ([1]; Compound A 3000 nM): 5 pg/mL and 3 pg/mL and 29 pg/mL and 86 pg/mL and 41 pg/mL and 4 pg/mL
CXCL13 in culture supernatant, mean ([1]; Compound A 3000 nM): 28 pg/mL
pathway inhibition (PI3K/Akt) (PI3K/Akt pathway; single administration of 80 mg, over 12 hours): greater than 80%
inhibition of the PI3K/Akt pathway (in words) (PI3K/Akt pathway; single oral administration): dose-, concentration- and time-dependent inhibition

From patent US20190038628A1, “USE OF INHIBITORS OF THE ACTIVITY OR FUNCTION OF PI3K FOR THE TREATMENT OF PRIMARY SJOGREN'S SYNDROME” (Novartis AG, priority 2016, published 2019)
